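Five compound concentrations were applied to cells in 96-well plates for 48 hours; endpoints were derived by simple linear interpolation of the resulting dose-response curve. GI50 marks 50% less growth.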 Activity calls are given as the source filed them. No stated cut-off is given here; in the data, active = GI50 up to about 1.1 µM and inactive = higher.
Experiments:
Assay in all cases: NCI tumour cell line growth inhibition, 48 h
TK-10 = test system: TK-10
SK-MEL-5 = test system: SK-MEL-5
Malme-3M = test system: Malme-3M
CCRF-CEM = test system: CCRF-CEM
SNB-19 = test system: SNB-19
SF-539 = test system: SF-539
SR = test system: SR
IGROV-1 = test system: IGROV-1
COLO 205 = test system: COLO 205
NCI-H23 = test system: NCI-H23
HT-29 = test system: HT-29
HOP-62 = test system: HOP-62
NCI-H522 = test system: NCI-H522
ACHN = test system: ACHN
786-0 = test system: 786-0
HCT-15 = test system: HCT-15
CAKI-1 = test system: CAKI-1

Compound | GI50 (TK-10) | GI50 (SK-MEL-5) | GI50 (Malme-3M) | GI50 (CCRF-CEM) | GI50 (SNB-19) | GI50 (SF-539) | GI50 (SR) | GI50 (IGROV-1) | GI50 (COLO 205) | GI50 (NCI-H23) | GI50 (HT-29) | GI50 (HOP-62) | GI50 (NCI-H522) | GI50 (ACHN) | GI50 (786-0) | GI50 (HCT-15) [µM] | GI50 (CAKI-1)
O=C(O/N=C1/CCCC/C1=C\c1ccccc1)c1ccccc1 | > 100 µM (inactive) | 0.146 µM (active) | > 100 µM (inactive) | 36.8 µM (inactive) | > 100 µM (inactive) | > 100 µM (inactive) | 43.5 µM (inactive) | 0.108 µM (active) | > 100 µM (inactive) | > 100 µM (inactive) | 40 µM (inactive) | > 100 µM (inactive) | 27.7 µM (inactive) | > 100 µM (inactive) | > 100 µM (inactive) | 84.3 | 
C/C(=N\NS(=O)(=O)c1ccccc1)c1ccc[n+]([O-])n1 |  | > 100 µM (inactive) |  | 19.4 µM (inactive) | > 100 µM (inactive) | > 100 µM (inactive) | 32.3 µM (inactive) | > 100 µM (inactive) |  | > 100 µM (inactive) | > 100 µM (inactive) | > 100 µM (inactive) | 25.6 µM (inactive) | > 100 µM (inactive) | > 100 µM (inactive) | > 100 | 34.1 µM (inactive)
C=CCc1cc(OC)c(O)c(C(=O)/C=C/c2ccc(OC)c(OC)c2)c1 | 25.1 µM (inactive) | 15.3 µM (inactive) | 18.6 µM (inactive) | 9.98 µM (inactive) | 15.6 µM (inactive) | 19.1 µM (inactive) |  | 44.6 µM (inactive) | 15.3 µM (inactive) | 15 µM (inactive) | 16.4 µM (inactive) | > 10 µM (inactive) | 1.86 µM (inactive) | 19.9 µM (inactive) | 18.2 µM (inactive) |  | 22.1 µM (inactive)
Cc1c2ccnc(C(N)=O)c2c(C)c2c1[nH]c1ccccc12 | 5.55 µM (inactive) | 6.18 µM (inactive) | 6.15 µM (inactive) | 4.73 µM (inactive) | 8.13 µM (inactive) | 6.76 µM (inactive) |  | 9.2 µM (inactive) | 5.07 µM (inactive) | 4.84 µM (inactive) | 6.35 µM (inactive) | 5.97 µM (inactive) | 7.59 µM (inactive) | 2.51 µM (inactive) | 5.08 µM (inactive) | 4.1 | 3.83 µM (inactive)
O=C1NC(=O)C(C(=O)C(=O)Nc2cccc(C(F)(F)F)c2)C(=O)N1 | > 100 µM (inactive) | > 100 µM (inactive) | > 100 µM (inactive) | > 100 µM (inactive) | > 100 µM (inactive) | > 100 µM (inactive) |  | > 100 µM (inactive) | > 100 µM (inactive) | > 100 µM (inactive) |  | > 100 µM (inactive) | > 100 µM (inactive) | > 100 µM (inactive) | > 100 µM (inactive) | > 100 | > 100 µM (inactive)
CCOC(=O)/C=C(/CN1C(=O)c2ccccc2C1=O)c1ccccc1 | > 100 µM (inactive) | > 100 µM (inactive) | > 100 µM (inactive) | > 100 µM (inactive) | > 100 µM (inactive) | > 100 µM (inactive) |  | > 100 µM (inactive) | > 100 µM (inactive) | > 100 µM (inactive) | > 100 µM (inactive) | > 100 µM (inactive) | > 100 µM (inactive) | > 100 µM (inactive) | > 100 µM (inactive) | > 100 | > 100 µM (inactive)
COC(=O)C(=O)C(C(=O)C(=O)Nc1ccccc1[N+](=O)[O-])c1nc2ccc([N+](=O)[O-])cc2nc1O (configuration not stated) | > 10 µM (inactive) | 46.2 µM (inactive) | > 100 µM (inactive) | > 100 µM (inactive) | > 100 µM (inactive) |  | > 100 µM (inactive) | > 100 µM (inactive) | > 100 µM (inactive) | > 100 µM (inactive) | > 100 µM (inactive) |  | > 100 µM (inactive) | > 100 µM (inactive) | > 100 µM (inactive) | > 100 | > 100 µM (inactive)
N#Cc1ccccc1NC(=O)c1ccccc1 | > 100 µM (inactive) | > 100 µM (inactive) | > 100 µM (inactive) |  | > 100 µM (inactive) | > 100 µM (inactive) | > 100 µM (inactive) | > 100 µM (inactive) | > 100 µM (inactive) | > 100 µM (inactive) | > 100 µM (inactive) | > 100 µM (inactive) |  | > 100 µM (inactive) | > 100 µM (inactive) | > 100 | > 100 µM (inactive)
CC1COS(=O)N1c1ccccc1 (configuration not stated) | > 100 µM (inactive) | > 100 µM (inactive) | > 100 µM (inactive) | > 100 µM (inactive) |  |  |  | > 100 µM (inactive) | > 100 µM (inactive) | > 100 µM (inactive) | > 100 µM (inactive) | > 100 µM (inactive) | > 100 µM (inactive) | > 100 µM (inactive) | > 100 µM (inactive) | > 100 | 
Clc1c(Cl)c2c(Cl)c(Cl)c1C[PH](c1ccccc1)(c1ccccc1)CC[PH](c1ccccc1)(c1ccccc1)Cc1c(Cl)c(Cl)c(c(Cl)c1Cl)C[PH](c1ccccc1)(c1ccccc1)CC[PH](c1ccccc1)(c1ccccc1)C2 | 3.18 µM (inactive) | 1.67 µM (inactive) | 2.38 µM (inactive) | 2.46 µM (inactive) | 2.67 µM (inactive) | 3.68 µM (inactive) |  | 2.86 µM (inactive) | 1.53 µM (inactive) | 2.01 µM (inactive) | 2.21 µM (inactive) | 4.95 µM (inactive) | 2.56 µM (inactive) | 4.69 µM (inactive) | 4.67 µM (inactive) | 8.39 | 7.06 µM (inactive)
CC(C)N(C(=O)C12C3C4C1(I)C1C2C3(I)C41C(=O)N(C(C)C)C(C)C)C(C)C (configuration not stated) | > 100 µM (inactive) | > 100 µM (inactive) | > 100 µM (inactive) | > 41.8 µM (inactive) | > 100 µM (inactive) | > 43.9 µM (inactive) |  | > 100 µM (inactive) | > 57.3 µM (inactive) | > 100 µM (inactive) | > 100 µM (inactive) | > 100 µM (inactive) | > 75.9 µM (inactive) | > 100 µM (inactive) | > 45.7 µM (inactive) | > 43.3 | > 100 µM (inactive)
CCOC(=O)C1C(c2ccc(Br)cc2)N(Cc2ccccc2)C(c2ccc(Br)cc2)C(C(=O)OC)S1(=O)=O (configuration not stated) | > 100 µM (inactive) |  | > 100 µM (inactive) | 40.4 µM (inactive) | 27.5 µM (inactive) |  | 34.4 µM (inactive) | > 100 µM (inactive) | > 100 µM (inactive) | > 100 µM (inactive) | 66.8 µM (inactive) | > 100 µM (inactive) | 50.6 µM (inactive) | 93.5 µM (inactive) | 32.3 µM (inactive) | > 100 | 77.1 µM (inactive)
CCCCCNC(=O)C1C(=O)N(CCCCC)C(=O)/C1=N\N (configuration not stated) | > 100 µM (inactive) | 29 µM (inactive) | > 100 µM (inactive) | 49.2 µM (inactive) | 35.2 µM (inactive) | 59.4 µM (inactive) |  | 53 µM (inactive) | > 100 µM (inactive) | 47.5 µM (inactive) | 83.8 µM (inactive) | 35.5 µM (inactive) | 31.6 µM (inactive) | 59.8 µM (inactive) | > 100 µM (inactive) | 59.2 | 
